In the supplement of paper PMC9549728:

How the values were obtained:
Experiment in all cases: IC50 (viability, PrestoBlue) (log10 nM)
Conditions in all cases: exposure time: 72 h
[1] = test system: murine normal gastric organoid
Procedure, shortened: (§1)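 Compounds diluted in DMSO were pre-spotted into 384-well plates at nine final concentrations (6.7–25,004 nM), and mechanically dissociated murine gastric corpus organoids, uninduced or Cre-induced (RAS-activated, WNT-activated, diffuse), were seeded in 15 μl Matrigel with 45 μl medium on top for 72 h. Viability was then read as fluorescence at 560/590 nm after 3 h at 37°C with 1× final PrestoBlue. IC50 values were derived by non-linear regression in Prism and are given in log10 nM, averaged over three passages with two wells each.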

[2] = test system: murine gastric organoid diffuse (Cdh1 fl/fl; Apc fl/fl)
Procedure, shortened: as §1

[3] = test system: murine gastric organoid RAS-activated (Kras G12D; Tp53 R172H)
Procedure, shortened: as §1

[4] = test system: murine gastric organoid WNT-activated (Apc fl/fl; Tp53 R172H)
Procedure, shortened: as §1

Row | Structure (SMILES) | IC50 (log10 nM) [1] | IC50 (log10 nM) [2] | IC50 (log10 nM) [3] | IC50 (log10 nM) [4]
1 | COC(=O)[C@]12CCC(C)(C)C[C@H]1[C@H]1C(=O)C=C3[C@@]4(C)C=C(C#N)C(=O)C(C)(C)[C@@H]4CC[C@@]3(C)[C@]1(C)CC2 [bardoxolone methyl] | 2.61 | 3.24 | 2.38 | 2.92
2 | O=c1[nH]cc(F)c(=O)[nH]1 [fluorouracil] | 3.4 | 3.28 | 3.32 | 4.09
3 | NC(=O)N1CCC(CC(=O)N2CCC([C@H]3c4ncc(Br)cc4CCc4cc(Cl)cc(Br)c43)CC2)CC1 [lonafarnib] | 3.33 | 4.3 | 3.03 | 3.47
